Experimental data as given in the kinase profiling compilation of Christmann-Franck et al. (2016).

Key:
Test in all cases: radiometric filter-binding kinase assay, Kinase HotSpot
Details in all cases: compound 0.5 µM; ATP 10 µM
AXL (human) = AXL (human) (UniProt P30530)
ERBB4 (human) = ERBB4 (human) (UniProt Q15303)
SRC (human) = SRC (human) (UniProt P12931)
FLT3 (human) = FLT3 (human) (UniProt P36888)
GRK4 (human) = GRK4 (human) (UniProt P32298)
CDK6 CCND3 (human) = CDK6 CCND3 (human) (UniProt P30281+Q00534)
MAPK11 (human) = MAPK11 (human) (UniProt Q15759)
CSNK2A1 (human) = CSNK2A1 (human) (UniProt P68400)
Sequence of CSNK2A1 (human) (P68400 whole entry, looked up): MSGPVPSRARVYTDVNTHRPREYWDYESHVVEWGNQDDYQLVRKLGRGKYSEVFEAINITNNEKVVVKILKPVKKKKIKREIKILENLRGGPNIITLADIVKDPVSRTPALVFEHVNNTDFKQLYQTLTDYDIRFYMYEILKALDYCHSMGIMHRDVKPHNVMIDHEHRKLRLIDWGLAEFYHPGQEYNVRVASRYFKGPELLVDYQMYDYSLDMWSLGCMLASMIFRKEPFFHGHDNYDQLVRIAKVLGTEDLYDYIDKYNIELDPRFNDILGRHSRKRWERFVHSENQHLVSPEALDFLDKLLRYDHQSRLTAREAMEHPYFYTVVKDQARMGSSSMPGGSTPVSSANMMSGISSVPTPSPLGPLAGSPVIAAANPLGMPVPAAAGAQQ

WNK3 (human) = WNK3 (human) (UniProt Q9BYP7)
Sequence of WNK3 (human) (Q9BYP7 whole entry, looked up): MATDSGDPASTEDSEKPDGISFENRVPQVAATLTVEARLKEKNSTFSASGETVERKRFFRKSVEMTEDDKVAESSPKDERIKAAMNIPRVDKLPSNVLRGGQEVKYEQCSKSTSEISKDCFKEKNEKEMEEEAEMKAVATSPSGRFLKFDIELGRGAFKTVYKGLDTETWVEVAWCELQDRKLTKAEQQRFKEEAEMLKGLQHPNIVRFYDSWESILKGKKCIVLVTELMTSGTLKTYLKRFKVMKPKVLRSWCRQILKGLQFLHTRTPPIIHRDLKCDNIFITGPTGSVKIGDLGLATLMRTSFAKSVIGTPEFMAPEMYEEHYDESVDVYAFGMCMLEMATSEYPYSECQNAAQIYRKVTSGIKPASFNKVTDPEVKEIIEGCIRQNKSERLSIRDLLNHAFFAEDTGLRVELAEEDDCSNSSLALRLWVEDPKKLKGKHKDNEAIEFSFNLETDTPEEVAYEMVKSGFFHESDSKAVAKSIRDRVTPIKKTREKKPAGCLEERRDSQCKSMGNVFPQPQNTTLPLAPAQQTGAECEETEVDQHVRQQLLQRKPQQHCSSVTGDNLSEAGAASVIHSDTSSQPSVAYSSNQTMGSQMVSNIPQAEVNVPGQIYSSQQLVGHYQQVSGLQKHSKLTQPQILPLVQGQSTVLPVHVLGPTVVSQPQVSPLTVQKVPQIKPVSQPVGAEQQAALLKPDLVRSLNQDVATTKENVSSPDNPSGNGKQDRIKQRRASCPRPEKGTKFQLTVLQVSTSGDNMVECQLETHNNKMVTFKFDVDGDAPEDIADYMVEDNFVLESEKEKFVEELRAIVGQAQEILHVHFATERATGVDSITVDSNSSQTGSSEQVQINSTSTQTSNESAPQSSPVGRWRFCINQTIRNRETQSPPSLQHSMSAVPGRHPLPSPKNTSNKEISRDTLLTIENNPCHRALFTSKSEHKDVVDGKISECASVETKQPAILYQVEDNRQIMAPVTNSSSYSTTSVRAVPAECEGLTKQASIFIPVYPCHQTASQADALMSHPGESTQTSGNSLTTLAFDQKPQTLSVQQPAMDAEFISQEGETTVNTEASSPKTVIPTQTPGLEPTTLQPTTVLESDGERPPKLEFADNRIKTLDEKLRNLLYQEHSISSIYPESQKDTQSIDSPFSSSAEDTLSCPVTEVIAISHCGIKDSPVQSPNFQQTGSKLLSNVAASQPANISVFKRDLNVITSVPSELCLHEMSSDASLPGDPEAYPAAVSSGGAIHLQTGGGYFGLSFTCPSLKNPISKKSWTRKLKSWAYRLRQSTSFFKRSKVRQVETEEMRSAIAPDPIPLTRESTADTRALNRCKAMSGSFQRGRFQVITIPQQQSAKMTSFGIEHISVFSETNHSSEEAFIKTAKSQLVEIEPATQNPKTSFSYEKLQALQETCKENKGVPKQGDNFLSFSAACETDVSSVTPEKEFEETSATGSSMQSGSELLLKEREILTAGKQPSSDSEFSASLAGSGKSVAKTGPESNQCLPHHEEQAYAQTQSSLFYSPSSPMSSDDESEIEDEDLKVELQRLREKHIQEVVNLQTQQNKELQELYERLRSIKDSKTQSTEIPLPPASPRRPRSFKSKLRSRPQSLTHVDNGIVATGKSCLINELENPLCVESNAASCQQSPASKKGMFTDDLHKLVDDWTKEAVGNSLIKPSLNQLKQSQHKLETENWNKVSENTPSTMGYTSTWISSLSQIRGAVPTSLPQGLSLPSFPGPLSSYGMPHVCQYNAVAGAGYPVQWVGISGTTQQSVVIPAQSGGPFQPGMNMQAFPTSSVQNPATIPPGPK

CSNK1A1 (human) = CSNK1A1 (human) (UniProt P48729)
PAK1 (human) = PAK1 (human) (UniProt Q13153)
Sequence of PAK1 (human) (Q13153 whole entry, looked up): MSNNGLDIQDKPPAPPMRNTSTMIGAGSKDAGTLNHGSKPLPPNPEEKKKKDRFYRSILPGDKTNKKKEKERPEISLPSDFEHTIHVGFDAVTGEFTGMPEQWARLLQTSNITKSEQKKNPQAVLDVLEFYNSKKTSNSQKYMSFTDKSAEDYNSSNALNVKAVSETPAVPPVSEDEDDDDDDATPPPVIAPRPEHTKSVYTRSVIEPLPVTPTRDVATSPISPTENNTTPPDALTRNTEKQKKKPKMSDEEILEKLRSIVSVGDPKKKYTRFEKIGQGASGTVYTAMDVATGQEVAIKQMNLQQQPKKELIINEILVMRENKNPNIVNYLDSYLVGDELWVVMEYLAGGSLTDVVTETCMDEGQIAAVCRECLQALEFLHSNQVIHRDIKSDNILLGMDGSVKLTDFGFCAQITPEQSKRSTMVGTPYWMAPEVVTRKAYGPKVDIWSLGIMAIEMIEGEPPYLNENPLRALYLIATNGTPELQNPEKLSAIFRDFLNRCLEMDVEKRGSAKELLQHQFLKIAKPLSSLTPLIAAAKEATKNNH

RPS6KA1 KD1 KD2 (human) = RPS6KA1 KD1 KD2 (human) (UniProt Q15418)
FYN (human) = FYN (human) (UniProt P06241)
GRK5 (human) = GRK5 (human) (UniProt P34947)
CAMK2B (human) = CAMK2B (human) (UniProt Q13554)
MAPK1 (human) = MAPK1 (human) (UniProt P28482)
Sequence of MAPK1 (human) (P28482 whole entry, looked up): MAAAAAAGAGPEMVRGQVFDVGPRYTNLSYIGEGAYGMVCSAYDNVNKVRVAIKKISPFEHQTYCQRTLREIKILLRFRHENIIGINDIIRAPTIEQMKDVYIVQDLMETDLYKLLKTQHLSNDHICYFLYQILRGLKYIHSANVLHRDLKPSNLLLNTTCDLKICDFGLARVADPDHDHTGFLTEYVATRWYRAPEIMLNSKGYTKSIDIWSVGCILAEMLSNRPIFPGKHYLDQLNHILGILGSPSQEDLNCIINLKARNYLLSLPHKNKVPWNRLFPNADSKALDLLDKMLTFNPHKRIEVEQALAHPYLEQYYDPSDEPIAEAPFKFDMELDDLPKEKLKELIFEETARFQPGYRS

MAPK13 (human) = MAPK13 (human) (UniProt O15264)
PDGFRA (human) = PDGFRA (human) (UniProt P16234)
TBK1 (human) = TBK1 (human) (UniProt Q9UHD2)
ALK (human) = ALK (human) (UniProt Q9UM73)
FRK (human) = FRK (human) (UniProt P42685)
MAP4K5 (human) = MAP4K5 (human) (UniProt Q9Y4K4)
WEE1 (human) = WEE1 (human) (UniProt P30291)
PRKD1 (human) = PRKD1 (human) (UniProt Q15139)
MAPKAPK3 (human) = MAPKAPK3 (human) (UniProt Q16644)
EPHB4 (human) = EPHB4 (human) (UniProt P54760)
CHEK1 (human) = CHEK1 (human) (UniProt O14757)
PLK3 (human) = PLK3 (human) (UniProt Q9H4B4)
FLT1 (human) = FLT1 (human) (UniProt P17948)
RET (human) = RET (human) (UniProt P07949)
STK10 (human) = STK10 (human) (UniProt O94804)
GRK7 (human) = GRK7 (human) (UniProt Q8WTQ7)
Sequence of GRK7 (human) (Q8WTQ7 whole entry, looked up): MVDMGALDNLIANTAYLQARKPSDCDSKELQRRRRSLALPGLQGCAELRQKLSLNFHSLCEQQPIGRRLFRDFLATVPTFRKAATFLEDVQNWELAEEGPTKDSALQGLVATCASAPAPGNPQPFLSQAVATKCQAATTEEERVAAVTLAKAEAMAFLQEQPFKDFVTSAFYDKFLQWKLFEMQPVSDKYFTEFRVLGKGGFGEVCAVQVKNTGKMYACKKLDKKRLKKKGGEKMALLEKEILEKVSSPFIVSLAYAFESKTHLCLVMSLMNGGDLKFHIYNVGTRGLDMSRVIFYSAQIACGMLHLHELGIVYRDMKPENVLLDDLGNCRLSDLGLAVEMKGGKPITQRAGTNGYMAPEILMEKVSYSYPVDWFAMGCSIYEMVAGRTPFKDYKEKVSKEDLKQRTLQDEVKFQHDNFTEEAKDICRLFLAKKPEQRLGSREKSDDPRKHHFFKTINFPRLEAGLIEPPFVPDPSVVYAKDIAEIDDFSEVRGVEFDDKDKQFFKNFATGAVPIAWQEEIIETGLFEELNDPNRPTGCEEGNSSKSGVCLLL

PRKD2 (human) = PRKD2 (human) (UniProt Q9BZL6)
RAF1 (human) = RAF1 (human) (UniProt P04049)
TGFBR2 (human) = TGFBR2 (human) (UniProt P37173)
KIT (human) = KIT (human) (UniProt P10721)
CDK5 CDK5R1 p25 (human) = CDK5 CDK5R1 p25 (human) (UniProt Q00535+Q15078)
RPS6KA2 KD1 KD2 (human) = RPS6KA2 KD1 KD2 (human) (UniProt Q15349)
PRKACA (human) = PRKACA (human) (UniProt P17612)
CDK1 CCNB1 (human) = CDK1 CCNB1 (human) (UniProt P06493+P14635)
CDK9 CCNT1 (human) = CDK9 CCNT1 (human) (UniProt P50750+O60563)

Sequence of SRC (human) (P12931 whole entry, looked up): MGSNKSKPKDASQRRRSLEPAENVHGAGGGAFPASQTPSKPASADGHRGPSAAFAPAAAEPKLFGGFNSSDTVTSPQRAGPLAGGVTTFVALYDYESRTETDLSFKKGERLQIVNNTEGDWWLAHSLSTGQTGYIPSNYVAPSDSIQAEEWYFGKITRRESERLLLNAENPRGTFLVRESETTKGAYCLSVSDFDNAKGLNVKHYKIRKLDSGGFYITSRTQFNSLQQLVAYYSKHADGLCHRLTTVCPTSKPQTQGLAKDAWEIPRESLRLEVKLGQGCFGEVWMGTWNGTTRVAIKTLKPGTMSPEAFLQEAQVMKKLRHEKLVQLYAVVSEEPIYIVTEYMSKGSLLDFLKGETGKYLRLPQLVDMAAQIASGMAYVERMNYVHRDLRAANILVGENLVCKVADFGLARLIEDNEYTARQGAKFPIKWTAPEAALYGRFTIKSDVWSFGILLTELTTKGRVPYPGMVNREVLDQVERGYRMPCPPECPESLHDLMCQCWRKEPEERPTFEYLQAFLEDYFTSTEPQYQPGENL
Sequence of GRK4 (human) (P32298 whole entry, looked up): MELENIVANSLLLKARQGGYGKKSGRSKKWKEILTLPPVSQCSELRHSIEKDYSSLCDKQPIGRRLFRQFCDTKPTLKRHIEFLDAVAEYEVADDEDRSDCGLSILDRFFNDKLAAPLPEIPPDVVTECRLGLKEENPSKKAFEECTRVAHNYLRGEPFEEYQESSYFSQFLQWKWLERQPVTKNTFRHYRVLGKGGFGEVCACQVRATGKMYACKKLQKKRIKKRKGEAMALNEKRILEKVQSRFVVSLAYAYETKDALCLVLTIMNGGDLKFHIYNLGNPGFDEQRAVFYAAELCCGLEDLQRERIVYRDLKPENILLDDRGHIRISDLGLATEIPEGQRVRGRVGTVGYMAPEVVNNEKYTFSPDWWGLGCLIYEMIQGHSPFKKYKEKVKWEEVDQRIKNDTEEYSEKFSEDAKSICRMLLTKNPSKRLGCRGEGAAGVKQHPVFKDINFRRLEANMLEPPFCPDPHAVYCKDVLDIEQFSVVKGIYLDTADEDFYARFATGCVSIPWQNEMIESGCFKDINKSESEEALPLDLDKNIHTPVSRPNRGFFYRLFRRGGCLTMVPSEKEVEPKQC

O=c1cc(N2CCOCC2)oc2c1ccc1ccccc12
residual activity (AXL (human)): 98.1% | residual activity (ERBB4 (human)): 101% | residual activity (SRC (human)): 99.3% | residual activity (FLT3 (human)): 104% | residual activity (GRK4 (human)): 104% | residual activity (CDK6 CCND3 (human)): 95.1% | residual activity (MAPK11 (human)): 97.9% | residual activity (CSNK2A1 (human)): 70.9% | residual activity (WNK3 (human)): 97.5% | residual activity (CSNK1A1 (human)): 115% | residual activity (PAK1 (human)): 93.5% | residual activity (RPS6KA1 KD1 KD2 (human)): 92% | residual activity (FYN (human)): 113% | residual activity (GRK5 (human)): 106% | residual activity (CAMK2B (human)): 98.1% | residual activity (MAPK1 (human)): 104% | residual activity (MAPK13 (human)): 99.8% | residual activity (PDGFRA (human)): 83.9% | residual activity (TBK1 (human)): 102% | residual activity (ALK (human)): 104% | residual activity (FRK (human)): 98.8% | residual activity (MAP4K5 (human)): 103% | residual activity (WEE1 (human)): 101% | residual activity (PRKD1 (human)): 102% | residual activity (MAPKAPK3 (human)): 105% | residual activity (EPHB4 (human)): 96.3% | residual activity (CHEK1 (human)): 104% | residual activity (PLK3 (human)): 64% | residual activity (FLT1 (human)): 95.5% | residual activity (RET (human)): 99.8% | residual activity (STK10 (human)): 96.9% | residual activity (GRK7 (human)): 107% | residual activity (PRKD2 (human)): 101% | residual activity (RAF1 (human)): 97.9% | residual activity (TGFBR2 (human)): 122% | residual activity (KIT (human)): 105% | residual activity (CDK5 CDK5R1 p25 (human)): 98.9% | residual activity (RPS6KA2 KD1 KD2 (human)): 98.8% | residual activity (PRKACA (human)): 102% | residual activity (CDK1 CCNB1 (human)): 85.5% | residual activity (CDK9 CCNT1 (human)): 99.1%

CCC(=O)Nc1ccc2ncnc(Nc3cccc(Br)c3)c2c1
residual activity (AXL (human)): 126% | residual activity (ERBB4 (human)): 82.3% | residual activity (SRC (human)): 93.6% | residual activity (FLT3 (human)): 94.1% | residual activity (GRK4 (human)): 96.2% | residual activity (CDK6 CCND3 (human)): 94.8% | residual activity (MAPK11 (human)): 92.9% | residual activity (CSNK2A1 (human)): 99% | residual activity (WNK3 (human)): 99.3% | residual activity (CSNK1A1 (human)): 97% | residual activity (PAK1 (human)): 96.3% | residual activity (RPS6KA1 KD1 KD2 (human)): 88.7% | residual activity (FYN (human)): 107% | residual activity (GRK5 (human)): 107% | residual activity (CAMK2B (human)): 105% | residual activity (MAPK1 (human)): 77.7% | residual activity (MAPK13 (human)): 106% | residual activity (PDGFRA (human)): 107% | residual activity (TBK1 (human)): 95.6% | residual activity (ALK (human)): 83.1% | residual activity (FRK (human)): 66.8% | residual activity (MAP4K5 (human)): 89% | residual activity (WEE1 (human)): 80.2% | residual activity (PRKD1 (human)): 97.9% | residual activity (MAPKAPK3 (human)): 90.2% | residual activity (EPHB4 (human)): 93.4% | residual activity (CHEK1 (human)): 114% | residual activity (PLK3 (human)): 93.2% | residual activity (FLT1 (human)): 86.9% | residual activity (RET (human)): 106% | residual activity (STK10 (human)): 68.7% | residual activity (GRK7 (human)): 105% | residual activity (PRKD2 (human)): 85.1% | residual activity (RAF1 (human)): 98.4% | residual activity (TGFBR2 (human)): 116% | residual activity (KIT (human)): 90.4% | residual activity (CDK5 CDK5R1 p25 (human)): 78.4% | residual activity (RPS6KA2 KD1 KD2 (human)): 87.2% | residual activity (PRKACA (human)): 94.6% | residual activity (CDK1 CCNB1 (human)): 89.5% | residual activity (CDK9 CCNT1 (human)): 93.7%

CNc1cc2c(Nc3cccc(Br)c3)ncnc2cn1
residual activity (AXL (human)): 98.6% | residual activity (ERBB4 (human)): 58.6% | residual activity (SRC (human)): 94.6% | residual activity (FLT3 (human)): 71.2% | residual activity (GRK4 (human)): 98.2% | residual activity (CDK6 CCND3 (human)): 90.8% | residual activity (MAPK11 (human)): 115% | residual activity (CSNK2A1 (human)): 94.3% | residual activity (WNK3 (human)): 97.4% | residual activity (CSNK1A1 (human)): 125% | residual activity (PAK1 (human)): 94.9% | residual activity (RPS6KA1 KD1 KD2 (human)): 90.9% | residual activity (FYN (human)): 91.7% | residual activity (GRK5 (human)): 120% | residual activity (CAMK2B (human)): 95.8% | residual activity (MAPK1 (human)): 88.6% | residual activity (MAPK13 (human)): 102% | residual activity (PDGFRA (human)): 99% | residual activity (TBK1 (human)): 94.5% | residual activity (ALK (human)): 82% | residual activity (FRK (human)): 91.2% | residual activity (MAP4K5 (human)): 77.1% | residual activity (WEE1 (human)): 75.9% | residual activity (PRKD1 (human)): 92.3% | residual activity (MAPKAPK3 (human)): 99.2% | residual activity (EPHB4 (human)): 99.6% | residual activity (CHEK1 (human)): 108% | residual activity (PLK3 (human)): 96.4% | residual activity (FLT1 (human)): 83.5% | residual activity (RET (human)): 78.5% | residual activity (STK10 (human)): 31.8% | residual activity (GRK7 (human)): 83.8% | residual activity (PRKD2 (human)): 86.4% | residual activity (RAF1 (human)): 87.8% | residual activity (TGFBR2 (human)): 105% | residual activity (KIT (human)): 86.4% | residual activity (CDK5 CDK5R1 p25 (human)): 82.9% | residual activity (RPS6KA2 KD1 KD2 (human)): 83.5% | residual activity (PRKACA (human)): 104% | residual activity (CDK1 CCNB1 (human)): 104% | residual activity (CDK9 CCNT1 (human)): 106%
